Results: patent US11207285B2, “Diabetes treatment regimens using alpha, alpha-substituted long-chain amphipathic carboxylates” (SYNDROMEX LTD., priority 2016, dated 2021)

Assays:
[1] = biological target: mammalian target of rapamycin (mTORC1) (Homo sapiens, UniProt P42345); assay: modulation of mTORC1 activity
[2] = test system: C57BL/KsJ (db/db) Spontaneous T2D mice; assay: glucose lowering effect in db/db mice; assay type: in vivo; conditions: once daily oral 30 mg/kg
Description: In addition, the glucose lowering effect of the above three compounds M16αα, M18αα and M20αα was tested in C57BL/KsJ (db/db) Spontaneous T2D mice, which serve as a model for T2D. These animals are characterized by hyperphagia, obesity, hyperglycemia and insulin resistance. The mice were treated once daily by oral administration of the tested compound at 30 mg/kg.

mTORC1 activity [1]: suppressing
Compound: CC(C)(CCCCCCCCCCCCC(C)(C)C(=O)O)C(=O)O [M16αα, 2,2,15,15-tetramethyl-hexadecane-1,16-dioic acid]
blood glucose levels [2]: significantly decrease | serum insulin levels [2]: significantly decrease | serum triglyceride levels [2]: significantly decrease
